# Patent US6620828B2, “Thiazole compounds and pharmaceutical compositions for inhibiting protein kinases and methods for their use” (Agouron Pharmaceuticals, Inc., priority 1999, dated 2003)
# Tested on: human umbilical vein endothelial cells (HUVEC)
# Experiment: HUVEC proliferation assay
# Format: cell-based
# Conditions: Homo sapiens, HUVEC, 10 nM; crude combinatorial urea library; read-out: Inhibition of HUVEC Proliferation % inhibition @ 10 nM
# Outline: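 Exponentially growing HUVEC were serum-starved 24 h (F12K + 1% FBS), pre-treated 1 h with compound (0.1% DMSO final), then stimulated with 6 ng/ml VEGF. Proliferation was read 72 h later by MTT reduction (A595). IC50 came from seven 0.5-log concentrations in triplicate; screens gave % inhibition relative to VEGF-only and starved wells.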
row,SMILES,inhibition at 0.01 µM
1,CCCCN(CC)CCNC(=O)Nc1nc(N)c(-c2nc(-c3cccc(NC(=O)c4cccc(OC)c4)c3)cs2)s1,1%
2,CCN1CCCC1CNC(=O)Nc1nc(N)c(-c2nc(-c3cccc(NC(=O)c4cccc(OC)c4)c3)cs2)s1 (stereo not drawn),-29%
3,COc1cccc(C(=O)Nc2cccc(-c3csc(-c4sc(NC(=O)NCCc5ccc(N)cc5)nc4N)n3)c2)c1,-3%
4,COc1cccc(C(=O)Nc2cccc(-c3csc(-c4sc(NC(=O)NC(CO)CO)nc4N)n3)c2)c1,-17%
5,CCN(CC)CCCNC(=O)Nc1nc(N)c(-c2nc(-c3cccc(NC(=O)c4cccc(OC)c4)c3)cs2)s1,-7%
6,COc1cccc(C(=O)Nc2cccc(-c3csc(-c4sc(NC(=O)NCC(N)=O)nc4N)n3)c2)c1,12%
7,COc1cccc(C(=O)Nc2cccc(-c3csc(-c4sc(NC(=O)NCC(C)C)nc4N)n3)c2)c1,-1%
8,COc1cccc(C(=O)Nc2cccc(-c3csc(-c4sc(NC(=O)NCC(C)(C)CN(C)C)nc4N)n3)c2)c1,-25%
9,CNC(=O)Nc1nc(N)c(-c2nc(-c3cccc(NC(=O)c4cccc(OC)c4)c3)cs2)s1 [drawing 606],15%
10,COc1cccc(C(=O)Nc2cccc(-c3csc(-c4sc(NC(=O)NCCC(C)C)nc4N)n3)c2)c1,25%
11,COc1cccc(C(=O)Nc2cccc(-c3csc(-c4sc(NC(=O)NC(C)CO)nc4N)n3)c2)c1 (stereo not drawn),-3%

# Same assay, conditions: Homo sapiens, HUVEC, 50 nM; crude combinatorial urea library; read-out: Inhibition of HUVEC Proliferation % inhibition @ 50 nM
row,SMILES,inhibition at 0.05 µM
1,CCCCN(CC)CCNC(=O)Nc1nc(N)c(-c2nc(-c3cccc(NC(=O)c4cccc(OC)c4)c3)cs2)s1,10%
2,CCN1CCCC1CNC(=O)Nc1nc(N)c(-c2nc(-c3cccc(NC(=O)c4cccc(OC)c4)c3)cs2)s1 (stereo not drawn),108%
3,COc1cccc(C(=O)Nc2cccc(-c3csc(-c4sc(NC(=O)NCCc5ccc(N)cc5)nc4N)n3)c2)c1,3%
4,COc1cccc(C(=O)Nc2cccc(-c3csc(-c4sc(NC(=O)NC(CO)CO)nc4N)n3)c2)c1,52%
5,CCN(CC)CCCNC(=O)Nc1nc(N)c(-c2nc(-c3cccc(NC(=O)c4cccc(OC)c4)c3)cs2)s1,45%
6,COc1cccc(C(=O)Nc2cccc(-c3csc(-c4sc(NC(=O)NCC(N)=O)nc4N)n3)c2)c1,25%
7,COc1cccc(C(=O)Nc2cccc(-c3csc(-c4sc(NC(=O)NCC(C)C)nc4N)n3)c2)c1,-23%
8,COc1cccc(C(=O)Nc2cccc(-c3csc(-c4sc(NC(=O)NCC(C)(C)CN(C)C)nc4N)n3)c2)c1,36%
9,CNC(=O)Nc1nc(N)c(-c2nc(-c3cccc(NC(=O)c4cccc(OC)c4)c3)cs2)s1 [drawing 606],115%
10,COc1cccc(C(=O)Nc2cccc(-c3csc(-c4sc(NC(=O)NCCC(C)C)nc4N)n3)c2)c1,18%
11,COc1cccc(C(=O)Nc2cccc(-c3csc(-c4sc(NC(=O)NC(C)CO)nc4N)n3)c2)c1 (stereo not drawn),42%

# Same assay, conditions: Homo sapiens, HUVEC, Inhibition of HUVEC Proliferation; 50 nM; crude combinatorial urea library; read-out: % inhibition @ 50 nM
row,SMILES,inhibition at 0.05 µM
1,COc1cccc(C(=O)Nc2cc(-c3csc(-c4sc(NC(=O)NCCC5CCCN5C)nc4N)n3)c(F)cc2F)c1 (stereo not drawn),27%
2,COc1cccc(C(=O)Nc2cc(-c3csc(-c4sc(NC(=O)NCC(C)(C)C)nc4N)n3)c(F)cc2F)c1,43%
3,COc1cccc(C(=O)Nc2cc(-c3csc(-c4sc(NC(=O)NCCCN(C)c5ccccc5)nc4N)n3)c(F)cc2F)c1,45%
4,COc1cccc(C(=O)Nc2cc(-c3csc(-c4sc(NC(=O)NCc5ccccc5)nc4N)n3)c(F)cc2F)c1 [drawing 678],93%
5,COc1cccc(C(=O)Nc2cc(-c3csc(-c4sc(NC(=O)NCCCN(C)C)nc4N)n3)c(F)cc2F)c1,72%
6,COc1cccc(C(=O)Nc2cc(-c3csc(-c4sc(NC(=O)NCC#N)nc4N)n3)c(F)cc2F)c1,71%
7,COc1cccc(C(=O)Nc2cc(-c3csc(-c4sc(NC(=O)NCCNc5ccccc5)nc4N)n3)c(F)cc2F)c1,60%
8,COc1cccc(C(=O)Nc2cc(-c3csc(-c4sc(NC(=O)NCc5cccnc5)nc4N)n3)c(F)cc2F)c1,102%
9,COc1cccc(C(=O)Nc2cc(-c3csc(-c4sc(NC(=O)NCC(C)(C)CO)nc4N)n3)c(F)cc2F)c1,120%
10,COc1cccc(C(=O)Nc2cc(-c3csc(-c4sc(NC(=O)NCCN5CCNC5=O)nc4N)n3)c(F)cc2F)c1,78%
11,COc1cccc(C(=O)Nc2cc(-c3csc(-c4sc(NC(=O)NCCCN5CCOCC5)nc4N)n3)c(F)cc2F)c1,81%
12,COc1cccc(C(=O)Nc2cc(-c3csc(-c4sc(NC(=O)NCCCN5CCCCC5)nc4N)n3)c(F)cc2F)c1,89%
13,COc1cccc(C(=O)Nc2cc(-c3csc(-c4sc(NC(=O)N[C@H]5CC[C@H](O)CC5)nc4N)n3)c(F)cc2F)c1,81%
14,COc1cccc(C(=O)Nc2cc(-c3csc(-c4sc(NC(=O)NCC(C)O)nc4N)n3)c(F)cc2F)c1 (stereo not drawn),111%
15,COc1cccc(C(=O)Nc2cc(-c3csc(-c4sc(NC(=O)NCCCN5CCN(C)CC5)nc4N)n3)c(F)cc2F)c1,95%

# Same assay, conditions: Homo sapiens, HUVEC, Inhibition of HUVEC Proliferation; 50 nM; crude combinatorial urea library; read-out: Inhibition @ 50 nM
row,SMILES,inhibition at 0.05 µM
1,COc1cccc(C(=O)Nc2cc(-c3noc(-c4sc(NC(=O)NCC(=N)N)nc4N)n3)c(F)cc2F)c1,65%
2,COc1cccc(C(=O)Nc2cc(-c3noc(-c4sc(NC(=O)NCCC(=O)NCC(=O)O)nc4N)n3)c(F)cc2F)c1,49%
3,COc1cccc(C(=O)Nc2cc(-c3noc(-c4sc(NC(=O)NCC(C)O)nc4N)n3)c(F)cc2F)c1 (stereo not drawn),78%
4,COc1cccc(C(=O)Nc2cc(-c3noc(-c4sc(NC(=O)NCCS(=O)(=O)O)nc4N)n3)c(F)cc2F)c1,88%
5,COc1cccc(C(=O)Nc2cc(-c3noc(-c4sc(NC(=O)NCCN5CCNCC5)nc4N)n3)c(F)cc2F)c1,76%
6,COc1cccc(C(=O)Nc2cc(-c3noc(-c4sc(NC(=O)NCCCN5CCCC5=O)nc4N)n3)c(F)cc2F)c1 [drawing 763],106%

# Same assay, conditions: Homo sapiens, HUVEC, Table I screening results; 150 nM; crude combinatorial amide library
row,SMILES,inhibition at 0.15 µM
1,COc1cc(Nc2nc(N)c(-c3nc(-c4cccc(NC(=O)Cc5ccc(Cl)c(Cl)c5)c4)cs3)s2)cc(OC)c1OC,-5%
2,COc1cc(Nc2nc(N)c(-c3nc(-c4cccc(NC(=O)c5ccc(N(C)C)cc5)c4)cs3)s2)cc(OC)c1OC,0%
3,COc1ccc2[nH]c(C(=O)Nc3cccc(-c4csc(-c5sc(Nc6cc(OC)c(OC)c(OC)c6)nc5N)n4)c3)cc2c1,1%
4,COc1cc(Nc2nc(N)c(-c3nc(-c4cccc(NC(=O)c5ccc6ncccc6c5)c4)cs3)s2)cc(OC)c1OC,26%
5,COc1cc(Nc2nc(N)c(-c3nc(-c4cccc(NC(=O)c5nn(-c6ccccc6)nc5C)c4)cs3)s2)cc(OC)c1OC,0%
6,COc1cc(Nc2nc(N)c(-c3nc(-c4cccc(NC(=O)C5C=CCC=C5C)c4)cs3)s2)cc(OC)c1OC (stereo not drawn),14%
7,COc1cc(Nc2nc(N)c(-c3nc(-c4cccc(NC(=O)c5sc(C)nc5C)c4)cs3)s2)cc(OC)c1OC [drawing 894],19%
8,COc1cc(Nc2nc(N)c(-c3nc(-c4cccc(NC(=O)c5cc(C(C)(C)C)cc(C(C)(C)C)c5)c4)cs3)s2)cc(OC)c1OC,-12%
9,COc1cc(Nc2nc(N)c(-c3nc(-c4cccc(NC(=O)C5(c6ccccc6)CCCC5)c4)cs3)s2)cc(OC)c1OC,-10%
10,COc1cc(Nc2nc(N)c(-c3nc(-c4cccc(NC(=O)c5ccc(NC(C)=O)cc5)c4)cs3)s2)cc(OC)c1OC,16%
11,COc1cc(Nc2nc(N)c(-c3nc(-c4cccc(NC(=O)c5cc(C)cc(C)c5)c4)cs3)s2)cc(OC)c1OC,78%
12,COc1cc(Nc2nc(N)c(-c3nc(-c4cccc(NC(=O)C5CCCC5)c4)cs3)s2)cc(OC)c1OC,12%
13,COc1cc(Nc2nc(N)c(-c3nc(-c4cccc(NC(=O)C5CC(=O)N5)c4)cs3)s2)cc(OC)c1OC (stereo not drawn),-2%
14,COc1cc(Nc2nc(N)c(-c3nc(-c4cccc(NC(=O)c5cccc(C(=O)c6ccccc6)c5)c4)cs3)s2)cc(OC)c1OC,-18%
15,COc1cc(Nc2nc(N)c(-c3nc(-c4cccc(NC(=O)c5csc(-c6cccnc6)n5)c4)cs3)s2)cc(OC)c1OC,38%
16,COc1cc(Nc2nc(N)c(-c3nc(-c4cccc(NC(=O)c5ccc6[nH]cnc6c5)c4)cs3)s2)cc(OC)c1OC,-30%

# Same assay, conditions: Homo sapiens, HUVEC, Table II screening results; 1 nM; crude combinatorial amide library
row,SMILES,inhibition at 0.001 µM
1,CNC(=O)Nc1nc(N)c(-c2nc(-c3cccc(NC(=O)c4cccc5cc[nH]c45)c3)cs2)s1,-11%
2,CNC(=O)Nc1nc(N)c(-c2nc(-c3cccc(NC(=O)c4cc(C)on4)c3)cs2)s1,14%
3,CNC(=O)Nc1nc(N)c(-c2nc(-c3cccc(NC(=O)c4cc(C)n(O)n4)c3)cs2)s1,-2%
4,CNC(=O)Nc1nc(N)c(-c2nc(-c3cccc(NC(=O)CC(C)(C)NC(C)=O)c3)cs2)s1,4%
5,CNC(=O)Nc1nc(N)c(-c2nc(-c3cccc(NC(=O)Cc4cccc(OC)c4)c3)cs2)s1,25%

# Same assay, conditions: Homo sapiens, HUVEC, Table II screening results; 10 nM; crude combinatorial amide library; read-out: % inhibition @ 10 nM
row,SMILES,inhibition at 0.01 µM
1,CNC(=O)Nc1nc(N)c(-c2nc(-c3cccc(NC(=O)c4cccc5cc[nH]c45)c3)cs2)s1,60%
2,CNC(=O)Nc1nc(N)c(-c2nc(-c3cccc(NC(=O)c4cc(C)on4)c3)cs2)s1,10%
3,CNC(=O)Nc1nc(N)c(-c2nc(-c3cccc(NC(=O)c4cc(C)n(O)n4)c3)cs2)s1,13%
4,CNC(=O)Nc1nc(N)c(-c2nc(-c3cccc(NC(=O)CC(C)(C)NC(C)=O)c3)cs2)s1,-11%
5,CNC(=O)Nc1nc(N)c(-c2nc(-c3cccc(NC(=O)Cc4cccc(OC)c4)c3)cs2)s1,-31%

# Same assay, conditions: Homo sapiens, HUVEC, table following Table II (untitled); 1 nM; crude combinatorial library
row,SMILES,inhibition at 0.001 µM
1,COc1cc(Nc2nc(N)c(-c3nc(-c4cc(NC(=O)[C@H]5CCC(=O)N5)ccc4C)no3)s2)cc(OC)c1OC,-4%
2,COc1cc(Nc2nc(N)c(-c3nc(-c4cc(NC(=O)C5CCN(C(C)=O)CC5)ccc4C)no3)s2)cc(OC)c1OC,-4%
3,CCn1nc(C)cc1C(=O)Nc1ccc(C)c(-c2noc(-c3sc(Nc4cc(OC)c(OC)c(OC)c4)nc3N)n2)c1,-4%
4,COc1cc(Nc2nc(N)c(-c3nc(-c4cc(NC(=O)CC5CCC6CCC5C6)ccc4C)no3)s2)cc(OC)c1OC (stereo not drawn),-7%
5,COc1cc(Nc2nc(N)c(-c3nc(-c4cc(NC(=O)C5CCCN5C(C)=O)ccc4C)no3)s2)cc(OC)c1OC (stereo not drawn),-13%
6,COc1cc(Nc2nc(N)c(-c3nc(-c4cc(NC(=O)c5cc(C)n(C)n5)ccc4C)no3)s2)cc(OC)c1OC,25%

# Same assay, conditions: Homo sapiens, HUVEC, table following Table II (untitled); 10 nM; crude combinatorial library; read-out: % inhibition @ 10 nM
row,SMILES,inhibition at 0.01 µM
1,COc1cc(Nc2nc(N)c(-c3nc(-c4cc(NC(=O)[C@H]5CCC(=O)N5)ccc4C)no3)s2)cc(OC)c1OC,13%
2,COc1cc(Nc2nc(N)c(-c3nc(-c4cc(NC(=O)C5CCN(C(C)=O)CC5)ccc4C)no3)s2)cc(OC)c1OC,16%
3,CCn1nc(C)cc1C(=O)Nc1ccc(C)c(-c2noc(-c3sc(Nc4cc(OC)c(OC)c(OC)c4)nc3N)n2)c1,44%
4,COc1cc(Nc2nc(N)c(-c3nc(-c4cc(NC(=O)CC5CCC6CCC5C6)ccc4C)no3)s2)cc(OC)c1OC (stereo not drawn),47%
5,COc1cc(Nc2nc(N)c(-c3nc(-c4cc(NC(=O)C5CCCN5C(C)=O)ccc4C)no3)s2)cc(OC)c1OC (stereo not drawn),-24%
6,COc1cc(Nc2nc(N)c(-c3nc(-c4cc(NC(=O)c5cc(C)n(C)n5)ccc4C)no3)s2)cc(OC)c1OC,99%

# Same assay, conditions: Table I screening results; 150 nM; crude combinatorial amide library
row,SMILES,% inhibition @ 150 nM
1,COc1cc(Nc2nc(N)c(-c3nc(-c4cccc(NC(=O)/C=C/c5cccc(F)c5)c4)cs3)s2)cc(OC)c1OC,0%
2,COc1cc(Nc2nc(N)c(-c3nc(-c4cccc(NC(=O)C5CCN(C(C)=O)CC5)c4)cs3)s2)cc(OC)c1OC,0%
3,COc1cc(Nc2nc(N)c(-c3nc(-c4cccc(NC(=O)/C=C/c5ccoc5)c4)cs3)s2)cc(OC)c1OC,0%
